Data from PMC10033419, “Blocking NS3–NS4B interaction inhibits dengue virus in non-human primates” (Nature, 2023).
“And” between values parts separate entries of the source, which are not always exact repeats. Identical values can stand only once. Like-named read-outs stand apart in the source and are kept apart here.

Legend:
DENV-2/16681/eGFP = assay: microbe, parasite or virus in culture; format: cell-based; conditions: Dengue virus
[1] = ATPLite cell viability assay; format: cell-based, human; conditions: human, THP-1/DC-SIGN cells
Method: (§1) In parallel, the toxicity was measured using an ATPLite cell viability luminescence assay (PerkinElmer). The assays were performed in three different cell types (Vero, Huh-7 and THP-1/DC-SIGN) as described in ref. [3] to exclude cell-specific activity of the compound.

THP-1/DC-SIGN cells = assay: ATPLite cell viability assay; format: cell-based, human
Method: as §1

MTS/PMS toxicity assay = format: cell-based, African green monkey; conditions: African green monkey, Vero cells
Method: (§2) A potential toxic effect on host cells was tested in parallel, while omitting virus infection, using the MTS/PMS method (Promega) for Vero cells, or by high-content imaging for C6/36 cells, as described previously. […] RT–qPCR data were analysed using the QuantStudio 12K Flex software (v.1.2.3) or SDS v.1.2 Applied Biosystems software. Inhibition values for antiviral molecules were plotted using KaleidaGraph plotting software (v.4.03, Synergy Software).

Vero cells = assay: MTS/PMS toxicity assay; format: cell-based, African green monkey; conditions: EXP1-EXP3, read-out: CC50, single experiments
Method: as §2

DENV-2 Asian I Thailand = format: cell-based; conditions: T108I in NS4B
ZIKV H/PF/2013 = assay: microbe, parasite or virus in culture; format: cell-based; conditions: Zika virus, Vero C1008
INF-B Singapore = assay: microbe, parasite or virus in culture; format: cell-based; conditions: Influenza B virus, MDCK
HBV replicon = assay: microbe, parasite or virus in culture; format: cell-based; conditions: Hepatitis B virus
HIV-1 IIIB = assay: microbe, parasite or virus in culture; format: cell-based; conditions: Human immunodeficiency virus 1, IIIB, MAGI-CCR5
VACV Western reserve 56 = assay: microbe, parasite or virus in culture; format: cell-based; conditions: Orthopoxvirus vaccinia, Vero C1008; VeroE6
Plasma protein binding = format: in vitro ADME; conditions: rhesus monkey, rhesus macaques
[2] = rhesus monkey, in vivo
in vivo = conditions: both, Indian-origin, rhesus monkey, po
in vitro [3] = conditions: dog
in vitro [4] = conditions: African green monkey
DENV-2 RL strain = assay: In vivo kinetics study, low viral inoculum (10^2 PFU); conditions: for In vivo kinetics, Mean of Log10: group mean; for In vivo kinetics, Copies/ml / In vivo kinetics, Log10 of Copies/ml: individual mice

## COc1cc(N[C@H](C(=O)c2c[nH]c3ccc(OC(F)(F)F)cc23)c2ccc(Cl)cc2OC)cc(S(C)(=O)=O)c1 [JNJ-1802]
DENV-2/16681/eGFP; DENV2, Huh-7, Huh-7, read-out: EC90
  EC90: 0.53 ± 0.31 nM
DENV-2/16681/eGFP; DENV2, Huh-7, read-out: EC90 Mean
  EC90: 0.533 nM
[1]
  CC50: > 500 nM
THP-1/DC-SIGN cells; individual data, read-out: CC50, individual data
  CC50: > 500 nM
THP-1/DC-SIGN cells; mean, read-out: CC50 Mean
  CC50: > 500 nM
MTS/PMS toxicity assay; EXP1-EXP3, read-out: CC50, single experiments
  CC50: 2770 nM
MTS/PMS toxicity assay; Vero, read-out: CC50
  CC50: > 2260 nM
MTS/PMS toxicity assay; mean, read-out: CC50 MEAN
  CC50: > 2300 nM
MTS/PMS toxicity assay; median, read-out: CC50 MEDIAN
  CC50: > 2000 nM
Vero cells
  CC50: > 2000 nM
DENV-2 Asian I Thailand
  EC50: 1.4 ± 0.34 nM
  EC90: 2.78 ± 0.037 nM
ZIKV H/PF/2013
  EC50: 1100 nM
INF-B Singapore
  EC50: > 2600 nM
INF-B Singapore; read-out: EC50, Mean
  EC50: > 25000 nM
INF-B Singapore; read-out: EC90, Mean
  EC90: > 25000 nM
HBV replicon; HepG2.117
  EC50: 10000 nM
HBV replicon; HepG2.117, read-out: EC50, Mean
  EC50: 9960 nM
HBV replicon; HepG2.117, read-out: EC90, Mean
  EC90: 12500 nM
HIV-1 IIIB
  EC50: 1600 nM
VACV Western reserve 56
  EC50: 8900 nM
Plasma protein binding
  fraction unbound: < 0.001
[2]
  adverse effects: No adverse effects were observed
  weight loss: not attributable to treatment with JNJ-1802
In vivo
  bioavailability: 18 to 27%
In vivo; 0.18 mg/kg
  AUC(0-t): 491 ± 147 ng·h/mL
In vivo; 0.18 mg/kg, AUC(0-24h)
  AUC(0-t): 227 ± 146 ng·h/mL
In vivo; 0.18 mg/kg, Cmax
  Cmax: 15.1 ± 8.5 ng/mL
In vivo; 0.18 mg/kg, tmax
  Tmax: 8 to 24 h
In vitro [3]
  CC90: 5380 nM
In vitro [3]; CC50
  CC50: 2600 nM
In vitro [3]; CC50, Mean
  CC50: 2630 nM
In vitro [4]
  CC50: 16000 nM
DENV-2 RL strain; 0.2 mg per kg per day b.i.d.
  viral load vs vehicle: No significant reduction in viral load
DENV-2 RL strain; 0.2 mg/kg/d, day 1 p.i.
  In vivo kinetics, Mean of Log10: 2.59 Log10
  In vivo kinetics, Copies/ml: 3.93E+02 Copies/ml
  In vivo kinetics, Log10 of Copies/ml: 2.5940 Log10
DENV-2 RL strain; 0.2 mg/kg/d, day 2 p.i.
  In vivo kinetics, Copies/ml: 3.93E+02 Copies/ml and 5.27E+03 Copies/ml
  In vivo kinetics, Log10 of Copies/ml: 2.5940 Log10 and 3.7220 Log10
DENV-2 RL strain; 0.2 mg/kg/d, day 3 p.i.
  In vivo kinetics, Mean of Log10: 3.28 Log10
  In vivo kinetics, Copies/ml: 7.26E+03 Copies/ml and 3.93E+02 Copies/ml and 6.17E+04 Copies/ml
  In vivo kinetics, Log10 of Copies/ml: 3.8609 Log10 and 2.5940 Log10 and 3.9537 Log10 and 4.7902 Log10
DENV-2 RL strain; 0.2 mg/kg/d, day 4 p.i.
  In vivo kinetics, Mean of Log10: 3.19 Log10
  In vivo kinetics, Copies/ml: 3.93E+02 Copies/ml and 1.02E+04 Copies/ml and 4.96E+03 Copies/ml and 2.86E+03 Copies/ml and 9.30E+03 Copies/ml
  In vivo kinetics, Log10 of Copies/ml: 2.5940 Log10 and 4.0085 Log10 and 3.6952 Log10 and 3.4564 Log10 and 3.9686 Log10
DENV-2 RL strain; 0.2 mg/kg/d, day 5 p.i.
  In vivo kinetics, Mean of Log10: 5.08 Log10
  In vivo kinetics, Copies/ml: 8.17E+04 Copies/ml and 5.79E+05 Copies/ml and 1.02E+05 Copies/ml
  In vivo kinetics, Log10 of Copies/ml: 4.9120 Log10 and 5.7623 Log10 and 4.6527 Log10 and 5.0605 Log10 and 5.0084 Log10
DENV-2 RL strain; 2 mg/kg/d, day 1 p.i.
  In vivo kinetics, Mean of Log10: 2.59 Log10
  In vivo kinetics, Copies/ml: 3.93E+02 Copies/ml
  In vivo kinetics, Log10 of Copies/ml: 2.5940 Log10
DENV-2 RL strain; 2 mg/kg/d, day 2 p.i.
  In vivo kinetics, Mean of Log10: 2.59 Log10
  In vivo kinetics, Copies/ml: 3.93E+02 Copies/ml
  In vivo kinetics, Log10 of Copies/ml: 2.5940 Log10
DENV-2 RL strain; 2 mg/kg/d, day 3 p.i.
  In vivo kinetics, Mean of Log10: 2.77 Log10
  In vivo kinetics, Copies/ml: 3.93E+02 Copies/ml and 6.33E+03 Copies/ml
  In vivo kinetics, Log10 of Copies/ml: 2.5940 Log10 and 3.8013 Log10
